# Data taken from patent publication US8629173B2, “Solid forms comprising (+)-2-[1-(3-ethoxy-4-methoxyphenyl)-2-methylsulfonylethyl]-4-acetylaminoisoindoline-1,3-dione, compositions thereof, and uses thereof” (Celgene Corporation, priority 2002, dated 2014).
# Assays:
# [1] = system: IL-1β-induced TNF-α production from human PBMC; assay: IL-1β-induced TNF-α production from human PBMC; format: cell-based; conditions: 18 h, read-out: IL-β-induced TNF-α IC50
# Experimental: During the course of inflammatory diseases, TNF-α production is often stimulated by the cytokine IL-1β, rather than by bacterially derived LPS. Compounds were tested for the ability to inhibit IL-1β-induced TNF-α production from human PBMC as described above for LPS-induced TNF-α production, except that the PBMC were isolated from source leukocyte units (Sera-Tec Biologicals, North Brunswick, N.J., USA) by centrifugation on Ficoll-Paque Plus (Amersham Pharmacia, Piscataway, N.J., USA), plated in 96-well tissue culture plates at 3×10^5 cells/well in RPMI-1640 medium (BioWhittaker, Walkersville, Md., USA) containing 10% heat-inactivated fetal bovine serum (Hyclone), 2 mM L-glutamine, 100 U/ml penicillin, and […] (complete medium), pretreated with compounds at 10, 2, 0.4, 0.08, 0.016, 0.0032, 0.00064, and 0 μM in duplicate at a final DMSO concentration of 0.1% at 37° C. in a humidified incubator at 5% CO2 for one hour, then stimulated with 50 ng/ml recombinant human IL-1β (Endogen) for 18 hours.
# conscious ferret = assay: Emesis and behavioral changes in conscious ferret; format: in vivo
# Experimental: The conscious ferret model has been used to investigate anti-inflammatory, emetic and behavioral effects of PDE4 inhibitors when administered by the oral (p.o.) route. From these experiments, a therapeutic index (TI) for each PDE4 inhibitor may be determined. The TI has been calculated by dividing the threshold dose for causing emetic episodes and behavioral changes by the anti-inflammatory dose (dose that causes 50% inhibition of the LPS-induced neutrophilia).
# PDE4 inhibitors were administered orally (p.o.), at doses initially of […], but subsequently up to 30 mg/kg in order to establish whether the TI was 10 or higher, and/or at lower doses to establish the minimum dose to cause 50% inhibition of neutrophilia. Ferrets were fasted overnight but allowed free access to water. The animals were orally dosed with vehicle or PDE4 inhibitor using a 15 cm dosing needle that was passed down the back of the throat into the oesophagus. After dosing, the animals were returned to holding cages fitted with Perspex doors to allow observation, and given free access to water. After dosing, the animals were constantly observed and any emesis or behavioral changes were recorded. The animals were allowed access to food 60 to 90 minutes after p.o. dosing.
# Thirty minutes after p.o. dosing with compound or vehicle control, the ferrets were placed into sealed Perspex containers and exposed to an aerosol of LPS (100 μg/ml) for 10 minutes. Aerosols of LPS were generated by a nebulizer (DeVilbiss, USA) and this was directed into the Perspex exposure chamber. Following a 10 minute exposure period, the animals were returned to the holding cages and allowed free access to water, and at a later stage, food. Observation continued for a period of at least 2.5 hours post p.o. dosing and emetic episodes and behavioral changes were recorded.
# 2. Emetic episodes—the number of vomits and retches were counted.
# 3. Behavioral changes—the following behavioral effects were noted: salivation, panting, mouth clawing, flattened posture, ataxia, arched back and backward walking Any behavioral changes were semi-quantified by applying a severity rating (mild, moderate or severe).
# 4. The TI was calculated as the highest dose found to not cause emetic episodes divided by the lowest dose found to inhibit pulmonary neutrophilia by 50% or more.
# Numbers in parentheses refer to the number of animals that responded. The numbers of animals in each group range from 4 to 22.
# From these experiments, a therapeutic index (TI) was determined for each compound by dividing the threshold dose for inducing emetic episodes by the ED50 value for inhibiting the pulmonary neutrophilia.
structure (smiles),measurement,setting,value
"CCOc1cc(C(CS(C)(=O)=O)N2C(=O)c3cccc(NC(C)=O)c3C2=O)ccc1OC (single isomer, unassigned; (+)) [Compound A, (+)-2-[1-(3-ethoxy-4-methoxyphenyl)-2-methylsulfonylethyl]-4-acetylaminoisoindoline-1,3-dione]",IC50,[1],83 nM
same,Threshold emetic dose,"conscious ferret; conscious ferret, p.o.",10 mg/kg
same,"Ataxia, severity","conscious ferret; ferret, 0.1 mg/kg p.o.",None
same,"Backward walking, number of animals that responded","conscious ferret; ferret, 0.1 mg/kg p.o.",(3/5)
same,"Backward walking, severity","conscious ferret; ferret, 0.1 mg/kg p.o.",Mild
same,"Flattened posture, number of animals that responded","conscious ferret; ferret, 0.1 mg/kg p.o.",(2/5)
same,"Flattened posture, severity","conscious ferret; ferret, 0.1 mg/kg p.o.",Mild
same,"Lip licking, number of animals that responded","conscious ferret; ferret, 0.1 mg/kg p.o.",(4/5)
same,"Lip licking, severity","conscious ferret; ferret, 0.1 mg/kg p.o.",Mild
same,"Mouth clawing, severity","conscious ferret; ferret, 0.1 mg/kg p.o.",None
same,"Panting, severity","conscious ferret; ferret, 0.1 mg/kg p.o.",None
same,"Retches, severity","conscious ferret; ferret, 0.1 mg/kg p.o.",None
same,"Salivation, severity","conscious ferret; ferret, 0.1 mg/kg p.o.",None
same,"Vomits, severity","conscious ferret; ferret, 0.1 mg/kg p.o.",None
same,"Ataxia, severity","conscious ferret; ferret, 0.3 mg/kg p.o.",None
same,"Backward walking, number of animals that responded","conscious ferret; ferret, 0.3 mg/kg p.o.",(4/6)
same,"Backward walking, severity","conscious ferret; ferret, 0.3 mg/kg p.o.",Mild
same,"Flattened posture, number of animals that responded","conscious ferret; ferret, 0.3 mg/kg p.o.",(2/6)
same,"Flattened posture, severity","conscious ferret; ferret, 0.3 mg/kg p.o.",Mild
same,"Lip licking, number of animals that responded","conscious ferret; ferret, 0.3 mg/kg p.o.",(3/6)
same,"Lip licking, severity","conscious ferret; ferret, 0.3 mg/kg p.o.",Mild
same,"Mouth clawing, severity","conscious ferret; ferret, 0.3 mg/kg p.o.",None
same,"Panting, severity","conscious ferret; ferret, 0.3 mg/kg p.o.",None
same,"Retches, severity","conscious ferret; ferret, 0.3 mg/kg p.o.",None
same,"Salivation, severity","conscious ferret; ferret, 0.3 mg/kg p.o.",None
same,"Vomits, severity","conscious ferret; ferret, 0.3 mg/kg p.o.",None
same,emetic episodes at anti-inflammatory dose,"conscious ferret; ferret, 1 mg/kg",no emetic episodes
same,"Ataxia, severity","conscious ferret; ferret, 1.0 mg/kg p.o.",None
same,"Backward walking, number of animals that responded","conscious ferret; ferret, 1.0 mg/kg p.o.",(4/6)
same,"Backward walking, severity","conscious ferret; ferret, 1.0 mg/kg p.o.",Mild
same,"Flattened posture, number of animals that responded","conscious ferret; ferret, 1.0 mg/kg p.o.",(2/6)
same,"Flattened posture, severity","conscious ferret; ferret, 1.0 mg/kg p.o.",Mild
same,"Lip licking, number of animals that responded","conscious ferret; ferret, 1.0 mg/kg p.o.",(6/6)
same,"Lip licking, severity","conscious ferret; ferret, 1.0 mg/kg p.o.",Mild
same,"Mouth clawing, severity","conscious ferret; ferret, 1.0 mg/kg p.o.",None
same,"Panting, severity","conscious ferret; ferret, 1.0 mg/kg p.o.",None
same,"Retches, severity","conscious ferret; ferret, 1.0 mg/kg p.o.",None
same,"Salivation, severity","conscious ferret; ferret, 1.0 mg/kg p.o.",None
same,"Vomits, severity","conscious ferret; ferret, 1.0 mg/kg p.o.",None
same,"Ataxia, severity","conscious ferret; ferret, 3.0 mg/kg p.o.",None
same,"Backward walking, number of animals that responded","conscious ferret; ferret, 3.0 mg/kg p.o.",(5/8)
same,"Backward walking, severity","conscious ferret; ferret, 3.0 mg/kg p.o.",Moderate
same,"Flattened posture, number of animals that responded","conscious ferret; ferret, 3.0 mg/kg p.o.",(7/8)
same,"Flattened posture, severity","conscious ferret; ferret, 3.0 mg/kg p.o.",Marked
same,"Lip licking, number of animals that responded","conscious ferret; ferret, 3.0 mg/kg p.o.",(2/8)
same,"Lip licking, severity","conscious ferret; ferret, 3.0 mg/kg p.o.",Mild
same,"Mouth clawing, number of animals that responded","conscious ferret; ferret, 3.0 mg/kg p.o.",(1/8)
same,"Mouth clawing, severity","conscious ferret; ferret, 3.0 mg/kg p.o.",Mild
same,"Panting, severity","conscious ferret; ferret, 3.0 mg/kg p.o.",None
same,"Retches, severity","conscious ferret; ferret, 3.0 mg/kg p.o.",None
same,"Salivation, severity","conscious ferret; ferret, 3.0 mg/kg p.o.",None
same,"Vomits, severity","conscious ferret; ferret, 3.0 mg/kg p.o.",None
same,"Ataxia, severity","conscious ferret; ferret, 10 mg/kg p.o.",None
same,"Backward walking, number of animals that responded","conscious ferret; ferret, 10 mg/kg p.o.",(6/6)
same,"Backward walking, severity","conscious ferret; ferret, 10 mg/kg p.o.",Marked
same,"Flattened posture, number of animals that responded","conscious ferret; ferret, 10 mg/kg p.o.",(6/6)
same,"Flattened posture, severity","conscious ferret; ferret, 10 mg/kg p.o.",Marked
same,"Lip licking, number of animals that responded","conscious ferret; ferret, 10 mg/kg p.o.",(5/6)
same,"Lip licking, severity","conscious ferret; ferret, 10 mg/kg p.o.",Moderate
same,"Mouth clawing, number of animals that responded","conscious ferret; ferret, 10 mg/kg p.o.",(1/6)
same,"Mouth clawing, severity","conscious ferret; ferret, 10 mg/kg p.o.",Mild
same,"Panting, severity","conscious ferret; ferret, 10 mg/kg p.o.",None
same,"Retches, severity","conscious ferret; ferret, 10 mg/kg p.o.",Mild
same,"Salivation, number of animals that responded","conscious ferret; ferret, 10 mg/kg p.o.",1/6
same,"Salivation, severity","conscious ferret; ferret, 10 mg/kg p.o.",Mild
same,"Vomits, severity","conscious ferret; ferret, 10 mg/kg p.o.",None
same,emesis,"conscious ferret; ferret, 10 mg/kg p.o.",no frank emesis
same,"salivation and behavioral changes, score","conscious ferret; ferret, 10 mg/kg p.o.",mild or moderate
same,"Retches, number of animals that responded","conscious ferret; ferret, 10 mg/kg p.o., 10 mg/kg",2/6 and (2/6)
same,"Ataxia, number of animals that responded","conscious ferret; ferret, 30 mg/kg p.o.",(3/4)
same,"Ataxia, severity","conscious ferret; ferret, 30 mg/kg p.o.",Mild
same,"Backward walking, number of animals that responded","conscious ferret; ferret, 30 mg/kg p.o.",(2/4)
same,"Backward walking, severity","conscious ferret; ferret, 30 mg/kg p.o.",Mild
same,"Flattened posture, number of animals that responded","conscious ferret; ferret, 30 mg/kg p.o.",(4/4)
same,"Flattened posture, severity","conscious ferret; ferret, 30 mg/kg p.o.",Marked
same,"Lip licking, number of animals that responded","conscious ferret; ferret, 30 mg/kg p.o.",(4/4)
same,"Lip licking, severity","conscious ferret; ferret, 30 mg/kg p.o.",Moderate
same,"Mouth clawing, number of animals that responded","conscious ferret; ferret, 30 mg/kg p.o.",(4/4)
same,"Mouth clawing, severity","conscious ferret; ferret, 30 mg/kg p.o.",Marked
same,"Panting, number of animals that responded","conscious ferret; ferret, 30 mg/kg p.o.",(1/4)
same,"Panting, severity","conscious ferret; ferret, 30 mg/kg p.o.",Mild
same,"Retches, number of animals that responded","conscious ferret; ferret, 30 mg/kg p.o.",(3/4)
same,"Retches, severity","conscious ferret; ferret, 30 mg/kg p.o.",Marked
same,"Salivation, number of animals that responded","conscious ferret; ferret, 30 mg/kg p.o.",(3/4)
same,"Salivation, severity","conscious ferret; ferret, 30 mg/kg p.o.",Moderate
same,"Vomits, number of animals that responded","conscious ferret; ferret, 30 mg/kg p.o.",(3/4)
same,"Vomits, severity","conscious ferret; ferret, 30 mg/kg p.o.",Moderate
same,behavioral changes,"conscious ferret; ferret, 30 mg/kg p.o.",pronounced
same,"emesis, animals affected","conscious ferret; ferret, 30 mg/kg p.o.",3/4
same,"emesis, severity","conscious ferret; ferret, 30 mg/kg p.o.",moderate to marked
same,"behavioral changes (flattened posture, lip licking, backward walking), classification","conscious ferret; ferret, 0.1-3 mg/kg p.o.",mild
same,emetic episodes (retching and vomiting),"conscious ferret; ferret, 0.1-3 mg/kg p.o.",no emetic episodes
same,Therapeutic index,"conscious ferret; threshold emetic dose divided by ED50 for pulmonary neutrophilia, ferret",12
